According to patent publication US6509163B1, “Methods of screening modulators of mammalian P2X7 purinergic receptors” (Glaxo Group Limited, priority 1997, dated 2003):

Tests used:
[1] = target: T1, r-hP2X7 (rat 1-346, human 347-595) (Rattus norvegicus, UniProt Q64663, A359S/A378V/A493C/A522V/A540S/C350F/D413N/D475V/E375Q/E438D/E521H/E537D/E539D/G538V/H448D/I354L/I464K/I516L/I541T/K419R/K544R/K576R/L353F/L437T/L525F/M459I/N356D/N481S/N490S/P390S/P407S/Q433A/Q463R/Q505A/Q585E/R366H/R491H/R501K/S370W/S443P/S445A/S449T/S514R/S552C/T348A/T361N/T434M/T584S/V367I/V467T/V559G/W410R/Y593S); assay: Whole-cell recordings in HEK293 cells expressing chimeric r-hP2X7 receptors; assay type: cell-based; conditions: low divalent concentrations, after removal of BzATP, n=10
T1 construct: r-hP2X7 (rat 1-346, human 347-595); expressed in transfected cells; host or cells: HEK293 (transient)
T1 sequence (Q64663 1-595 T348A/C350F/L353F/I354L/N356D/A359S/T361N/R366H/V367I/S370W/E375Q/A378V/P390S/P407S/W410R/D413N/K419R/Q433A/T434M/L437T/E438D/S443P/S445A/H448D/S449T/M459I/Q463R/I464K/V467T/D475V/N481S/N490S/R491H/A493C/R501K/Q505A/S514R/I516L/E521H/A522V/L525F/E537D/G538V/E539D/A540S/I541T/K544R/S552C/V559G/K576R/T584S/Q585E/Y593S): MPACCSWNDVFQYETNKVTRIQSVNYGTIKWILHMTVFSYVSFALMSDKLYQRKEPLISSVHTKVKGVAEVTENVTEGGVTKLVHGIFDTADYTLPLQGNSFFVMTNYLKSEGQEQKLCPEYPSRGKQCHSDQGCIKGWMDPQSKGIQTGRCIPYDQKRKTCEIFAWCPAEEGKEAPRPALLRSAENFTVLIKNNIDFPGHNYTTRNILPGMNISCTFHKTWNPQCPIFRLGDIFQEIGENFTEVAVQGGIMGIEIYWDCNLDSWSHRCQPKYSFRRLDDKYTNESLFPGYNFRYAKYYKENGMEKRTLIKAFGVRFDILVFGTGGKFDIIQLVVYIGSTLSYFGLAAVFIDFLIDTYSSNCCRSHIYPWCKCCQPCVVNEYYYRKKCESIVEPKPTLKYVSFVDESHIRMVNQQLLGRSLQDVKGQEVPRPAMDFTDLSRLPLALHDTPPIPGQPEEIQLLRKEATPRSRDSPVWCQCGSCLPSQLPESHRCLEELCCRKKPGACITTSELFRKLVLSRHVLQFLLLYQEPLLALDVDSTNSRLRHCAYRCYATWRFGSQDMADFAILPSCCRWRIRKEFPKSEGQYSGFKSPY
Source text: Chimeras. A silent restriction site (NheI) was introduced at the equivalent positions in the rat and human cDNAs using the Pfu mutagenesis kit (Stratagene) (T to G at 1069 in rP2X7; G to A at 1072 in hP2X7) . A NheI-XhoI fragment corresponding to 3′ extremity of each cDNA was then excised and subcloned in the opposite plasmid (i.e. human 3′ end into rat background). The resulting chimeras were h-rP2X7 (human 1-346, rat 347-595) and r-hP2X7 (rat 1-346, human 347-595) (FIG. 5). All constructions were sequenced on their entire coding region.
Cell culture. HEK293 cells were transiently transfected with cDNA (1 μg/ml) and lipofectin dissolved in Optimem (GIBCO) placed into petri dishes containing four coverslips onto which cells were plated at a density of about 8×10^4/coverslip. Cells were washed 5 h later and normal DMEM applied. Electrophysiological studies or dye uptake measurements were carried out 18-49 h later. For each set of transfections, parallel experiments were performed on HEK cells transfected with cDNA encoding both rP2X7 and hP2X7 receptors.
Electrophysiological experiments. Whole-cell recordings were made using the EPC9 patch-clamp amplifier and Pulse acquisition programs (HEKA, Lambrecht, Germany). Patch pipettes (5-7 MΩ) contained (mM) CsCl or NaCl 154, EGTA 10, HEPES 5. […]

P2X7ΔC receptor = target: T2, P2X7ΔC receptor (Rattus norvegicus, UniProt Q64663); assay: YO-PRO-1 uptake in HEK cells expressing P2X7ΔC receptor; assay type: cell-based; conditions: low divalent solution, BzATP 300 μM
T2 construct: the resulting protein (P2X7ΔC) was P2X7 (1-418); expressed in transfected cells; host or cells: HEK293 (transient)
T2 sequence (Q64663 1-418): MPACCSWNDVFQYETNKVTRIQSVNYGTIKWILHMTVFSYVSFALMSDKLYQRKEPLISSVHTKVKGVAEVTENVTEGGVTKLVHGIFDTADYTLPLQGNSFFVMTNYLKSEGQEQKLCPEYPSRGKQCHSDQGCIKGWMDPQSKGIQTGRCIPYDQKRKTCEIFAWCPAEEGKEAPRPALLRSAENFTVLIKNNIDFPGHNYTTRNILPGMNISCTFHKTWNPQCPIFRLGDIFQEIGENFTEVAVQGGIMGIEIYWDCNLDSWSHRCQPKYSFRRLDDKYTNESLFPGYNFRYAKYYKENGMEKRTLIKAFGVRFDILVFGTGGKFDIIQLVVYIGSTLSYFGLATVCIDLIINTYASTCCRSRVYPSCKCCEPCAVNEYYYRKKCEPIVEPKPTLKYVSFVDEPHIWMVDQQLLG
Experimental: YO-PRO-1 (10 μM; Molecular Probes, Eugene, Oreg.) was added to the superfusion fluid during electrophysiological recordings 3 to 6 min before switching to low divalent solution and washed out upon switching back to normal divalent solution, after which the fluorescent lamp was turned on and cells were examined with a fluorescein isothiocyanate filter. For cell counts, 500 cells per cover slip were counted in each case.

With `Nc1ncnc2c1ncn2[C@@H]1O[C@H](COP(=O)(O)OP(=O)(O)OP(=O)(O)O)[C@@H](OC(=O)c2ccc(C(=O)c3ccccc3)cc2)[C@H]1O` [BzATP, 3′-O-(4-benzoyl)benzoyl ATP] the “current measured at 30 s, of peak” value [1] was 31±3 and the “uptake of YO-PRO-1 induced by BzATP” value (P2X7ΔC receptor) was “no uptake of YO-PRO-1 was induced”.
